Laboratory results from ChEMBL document CHEMBL1130975, “Preparation of alpha-keto ester enol acetates as potential prodrugs of human neutrophil elastase inhibitors” (Bioorg Med Chem Lett, 1998).

Key:
Neutrophil elastase = molecular target: T1, Neutrophil elastase (Homo sapiens, UniProt P08246); experiment: Tested for rate of substrate hydrolysis in the presence of human neutrophil elastase
T1 sequence (P08246 whole entry): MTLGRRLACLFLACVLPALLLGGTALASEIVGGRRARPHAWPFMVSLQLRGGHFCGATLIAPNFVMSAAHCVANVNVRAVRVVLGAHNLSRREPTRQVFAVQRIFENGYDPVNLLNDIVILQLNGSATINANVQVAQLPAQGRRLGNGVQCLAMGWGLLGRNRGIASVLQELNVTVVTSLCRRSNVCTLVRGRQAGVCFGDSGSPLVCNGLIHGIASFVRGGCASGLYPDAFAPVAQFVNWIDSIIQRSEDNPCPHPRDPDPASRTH

[1] = molecular target: T2, S-formylglutathione hydrolase (Sus scrofa) (UniProt Q9GJT2); conditions: 10 nM
T2 sequence (whole entry): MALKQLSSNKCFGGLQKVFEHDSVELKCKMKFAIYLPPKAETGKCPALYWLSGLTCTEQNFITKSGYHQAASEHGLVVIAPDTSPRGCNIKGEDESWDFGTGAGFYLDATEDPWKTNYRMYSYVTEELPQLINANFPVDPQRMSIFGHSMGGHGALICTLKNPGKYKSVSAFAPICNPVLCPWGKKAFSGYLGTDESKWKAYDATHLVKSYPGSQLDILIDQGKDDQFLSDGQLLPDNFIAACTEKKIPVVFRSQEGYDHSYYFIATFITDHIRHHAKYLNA
Description: Tested for rate of substrate hydrolysis in the presence of porcine kidney esterase at a concentration of 10 nM

[2] = molecular target: T3, Neutrophil elastase (Homo sapiens) (UniProt P08246); experiment: Tested for rate of substrate hydrolysis in the presence of human neutrophil elastase at a concentration of 10 nM
T3 sequence (whole entry): T1 sequence (P08246 whole entry)

[3] = molecular target: T2, S-formylglutathione hydrolase (Sus scrofa); conditions: 45 nM
Description: Tested for rate of substrate hydrolysis in the presence of porcine kidney esterase at a concentration of 45 nM

[4] = molecular target: T3, Neutrophil elastase (Homo sapiens); experiment: Tested for rate of substrate hydrolysis in the presence of human neutrophil elastase at a concentration of 45 nM
[5] = molecular target: T3, Neutrophil elastase (Homo sapiens); experiment: Tested for rate of substrate hydrolysis in the presence of human neutrophil elastase at a concentration of 1 uM
[6] = molecular target: T2, S-formylglutathione hydrolase (Sus scrofa); experiment: Tested for rate of substrate hydrolysis in the presence of porcine kidney esterase at a concentration of 9 uM
[7] = molecular target: T3, Neutrophil elastase (Homo sapiens); experiment: Tested for rate of substrate hydrolysis in the presence of human neutrophil elastase at a concentration of 9 uM
[8] = molecular target: T2, S-formylglutathione hydrolase (Sus scrofa); experiment: Tested for rate of substrate hydrolysis in the presence of porcine kidney esterase at a concentration of 1 uM

COC(=O)CCC(=O)N[C@@H](C)C(=O)N[C@@H](C)C(=O)N1CCC[C@H]1C(=O)N[C@H](C(=O)C(=O)OC)C(C)C
Ki (Neutrophil elastase): 200 nM

COC(=O)/C(OC(C)=O)=C(\NC(=O)[C@@H]1CCCN1C(=O)[C@H](C)NC(=O)[C@H](C)NC(=O)c1ccc(C(=O)NS(=O)(=O)c2ccc(Cl)cc2)cc1)C(C)C
Rate [1]: 76% | Rate [2]: 99% | Rate [3]: 37% | Rate [4]: 94%

COC(=O)CCC(=O)N[C@@H](C)C(=O)N[C@@H](C)C(=O)N1CCC[C@H]1C(=O)N/C(=C(/OC(C)=O)C(=O)OC)C(C)C
Rate [5]: 81% | Rate [6]: 2.8% | Rate [7]: 35% | Rate [8]: 24%

COC(=O)C(=O)[C@@H](NC(=O)C1CCCN1C(=O)[C@H](C)NC(=O)[C@H](C)NC(=O)c1ccc(C(=O)NS(=O)(=O)c2ccc(Cl)cc2)cc1)C(C)C (stereo not given in full)
Ki (Neutrophil elastase): 2 nM
